“Also recorded” adds a separate entry of the source. Structures can show the parent of a compound that is named as a salt.
Key:
[1] = tested on: neurons in the hippocampal region; assay: SHG line scan recording of membrane potential in dye-filled neurons of acute brain slices; format: cell-based, rat; conditions: neurons filled with dye via patch pipette, ~1060 nm/~300 fs laser pulses, voltage steps at the soma
Excerpt: SHG microscopy is emerging as a powerful new method to optically record membrane potential changes of active neurons. […] This technique has been applied to acute rat brain slices by patch clamping and filling neurons in the hippocampal region with the dye FM4-64. […] The SHG signal emanates from the plasma membrane with little background from intra- or extracellular regions. […] Additionally, it has been shown that a backward propagating SHG signal exists (Forward/Backward ratio ˜6).
Repeated line scanning of the SHG signal was used to optically record action potentials (signal to noise ratio (S/N) ˜5-8 by temporal averaging of ˜50 line scans) on somatic membranes. Voltage steps were applied at the soma and the SHG response was recorded in the dendritic arbor >100 μm deep in slice. Dendritic spines were clearly visible, possibly making the recording of membrane potential transients from these compartments feasible. […] The line scan averaging necessary to increase S/N was accomplished in minutes. […] In addition to patch clamping, it was shown that extracellular micropipette pressure injection of the dye into hippocampal cell layers leads to SHG labeling of many tens of neurons.

[2] = tested on: mossy fibers; assay: Pharmacology: SHG from mossy fibers of acute hippocampal slices after cytoskeleton-depolymerizing drugs; format: cell-based, rat; conditions: for Effect on SHG from mossy fibers compared to the control: cytochalasin D 1 μM or nocodazole 25 μM, solvent control
Excerpt: SHG and TPF microscopy were simultaneously performed on either a Bio-Rad MRC 1024 or Radiance scan head on a modified inverted Olympus IX-70 microscope (FIG. 1). The excitation source was a mode-locked Ti:Sapphire laser (˜100 fs pulses at 80 MHz) (Spectra-Physics) pumped by a 5 W solid state Millennia laser (Spectra-Physics). The laser polarization was controlled via a Berek polarization compensator (New Focus, San Jose, Calif.) and the beam focused into the sample with one of the following (overfilled back aperture) objectives: Zeiss C-Apochromat 10×/0.45 NA, Olympus UApo 20×/0.7 NA, Zeiss Fluar 20×/0.75 NA, Olympus UApo 40×/1.15 NA, Zeiss Fluar 40×/1.3 NA. The resultant SHG was collected in the transmitted (forward) direction with an Olympus XLUMPlanFl 20×/0.95 NA objective, while the TPF was epi-collected through the excitation objective. A combination of dichroic mirrors, band-pass and blue-glass filters (Chroma Technology, Brattleboro, Vt.) and polarization analyzers (Newport) separated the signals for detection with Bialkali photo-multiplier tubes (PMTs) (Hammamatsu). The excitation wavelength, average excitation intensity (<I>) at the sample, and two-photon 1/e radial Gaussian beam waist approximation (w) (Richards et al., Proc Royal Soc London Series A-Mathematical Physical Sciences 253:358-379 (1959), which is hereby incorporated by reference in its entirety) are given with the figures. The average power at the sample is (<I>·π·w^2). The images are temporally summed over several scans at dwell times ˜10-100 μs/μm^2. Confocal imaging was performed on the same microscope, but using an argon-krypton laser for excitation. […]
The slices were transferred from the static incubation bath to a static ASCF bath on the microscope stage. […] The average intensities from the three groups were calculated and compared for statistical significance with a T-test.

[3] = electrochromic mechanism; from Moreaux et al., Optics Letters 28:625-627 (2003); cited from earlier work
[4] = tested on: cultured Aplysia neurons; assay: SHG line scan recording of Vm in dye-stained cultured Aplysia neurons under voltage clamp; format: cell-based, Aplysia californica; conditions: 8 μM dye extracellular perfusion, 940 nm excitation, two-electrode voltage clamp
Experimental: Abdominal and cerebral ganglia from up to 15 different 5-10 g Aplysia californica were dissociated and cultured with like ganglia (i.e., abdominal with abdominal, cerebral with cerebral) according to Banker and Goslin (i.e., Banker et al., Culturing Nerve Cells, 2nd Edition, Cambridge, Mass.: MIT Press (1998), which is hereby incorporated by reference in its entirety). The cultures were grown in MatTek glass bottom dishes (MatTek Corp., Ashland, Mass.) at 17-18 C. For recordings, 4 to 14 day old cultures were used.
For staining and imaging, 4-[[4-(dihexylamino)phenyl]]ethynyl]-1-(4-sulfobutyl)pyridinium, inner salt (“DHPESBP”) (“Molecule B” from Moreaux et al., “Electro-Optic Response of Second-Harmonic Generation Membrane Potential Sensors,” Optics Letters 28:625-627 (2003), which is hereby incorporated by reference in its entirety) was used, because of its proven fast (<150 μs) response to Vm. SHG from giant unilamellar vesicles stained with this molecule was sensitive to Vm on fast time scales through an electrochromic (rather than reorientational) mechanism (Moreaux et al., “Electro-Optic Response of Second-Harmonic Generation Membrane Potential Sensors,” Optics Letters 28:625-627 (2003), which is hereby incorporated by reference in its entirety). […]

Question: For `CCN(CC)c1ccc(C=CC=CC=Cc2cc[n+](CCC[N+](CC)(CC)CC)cc2)cc1.[Br-].[Br-]` [FM4-64, N-(3-triethylammoniumpropyl)-4-(6-(4-(diethylamino)phenyl)hexatrienyl)pyridinium dibromide], which “SHG signal linear response to membrane potential” value [1] is on record?
Answer: The value was roughly 7.7 %/100 mV.

Question: With `COC(=O)Nc1nc2ccc(C(=O)c3cccs3)cc2[nH]1` [nocodazole, Nocodazole] as the molecule, how does the “SHG from the mossy fibers after addition of the drug, relative to its original value” ([2]; continuous treatment, nocodazole 25 μM, imaged for 70 min, 34° C., 4 slices) read?
Answer: The value was roughly 39%.

Question: And the “Effect on SHG from mossy fibers compared to the control” value [2]?
Answer: The value was “drastic”.

Question: Which results are given for `CCCCCCN(CCCCCC)c1ccc(C#Cc2cc[n+](CCCCS(=O)(=O)[O-])cc2)cc1` [DHPESBP, 4-[[4-(dihexylamino)phenyl]ethynyl]-1-(4-sulfobutyl)pyridinium, inner salt]?
Answer: Response time of SHG to Vm [3]: < 150 μs; SHG signal change as a function of change in membrane potential (linear response) [4]: ~6 %/100 mV

Question: With `C=C1[C@@H](C)[C@H]2[C@H](Cc3ccccc3)NC(=O)[C@]23[C@H](OC(C)=O)/C=C/[C@@](C)(O)C(=O)[C@@H](C)C/C=C/[C@H]3[C@@H]1O` [Cytochalasin D] as the molecule, how does the “Effect on SHG from mossy fibers compared to the control” value [2] read?
Answer: Its value is “did not affect the SHG; also recorded: no significant effect”.

Source: patent US20050259249A1, “Nonlinear optical detection of fast cellular electrical activity” (priority 2004, published 2005)
